Assay results published in ChEMBL document CHEMBL1149524 (Bioorg Med Chem Lett, 2006).
In brackets after ≈: the same amount, converted by molar mass.

Key:
Cathepsin K = biological target: T1, Cathepsin K (Homo sapiens, UniProt P43235); assay: Inhibition of cathepsin K; type: single protein
T1 sequence (P43235 whole entry): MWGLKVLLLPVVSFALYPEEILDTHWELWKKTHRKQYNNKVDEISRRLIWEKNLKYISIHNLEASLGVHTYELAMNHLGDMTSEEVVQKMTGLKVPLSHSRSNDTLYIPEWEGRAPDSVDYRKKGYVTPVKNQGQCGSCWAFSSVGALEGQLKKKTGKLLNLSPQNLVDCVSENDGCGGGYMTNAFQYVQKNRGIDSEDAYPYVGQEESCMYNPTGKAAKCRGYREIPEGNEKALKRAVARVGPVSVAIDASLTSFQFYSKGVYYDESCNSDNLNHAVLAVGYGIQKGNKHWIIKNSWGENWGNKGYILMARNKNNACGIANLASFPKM

Cathepsin S = Cathepsin S (Homo sapiens, UniProt P25774); assay: Inhibition of cathepsin S; type: single protein
Procathepsin L = Procathepsin L (Homo sapiens, UniProt P07711)
Description: Inhibition of cathepsin L

Cathepsin Z = Cathepsin Z (Homo sapiens, UniProt Q9UBR2); assay: Inhibition of cathepsin X
[1] = AUC in Wistar rat at 10 mg/kg, po; type: ADME, organism-based; design: dose 10 mg/kg, route oral; conditions: plasma
Cathepsin L2 = biological target: T2, Cathepsin L2 (Homo sapiens, UniProt O60911); assay: Inhibition of cathepsin V
T2 sequence (O60911 whole entry): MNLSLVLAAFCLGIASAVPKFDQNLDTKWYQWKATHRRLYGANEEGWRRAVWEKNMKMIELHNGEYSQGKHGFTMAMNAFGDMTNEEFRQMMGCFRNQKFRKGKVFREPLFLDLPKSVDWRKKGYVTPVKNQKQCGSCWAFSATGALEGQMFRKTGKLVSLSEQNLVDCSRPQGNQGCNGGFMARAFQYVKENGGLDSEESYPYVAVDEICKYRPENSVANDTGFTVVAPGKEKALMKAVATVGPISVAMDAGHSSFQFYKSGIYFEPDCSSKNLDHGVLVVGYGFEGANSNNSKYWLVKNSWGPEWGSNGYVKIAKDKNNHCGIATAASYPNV

Cathepsin B = Cathepsin B (Homo sapiens, UniProt P07858); assay: Inhibition of cathepsin B
[2] = Cmax in Wistar rat at 10 mg/kg, po; type: ADME, organism-based; design: dose 10 mg/kg, route oral; conditions: in vivo
Pro-cathepsin H = biological target: T3, Pro-cathepsin H (Homo sapiens, UniProt P09668); assay: Inhibition of cathepsin H
T3 sequence (P09668 whole entry): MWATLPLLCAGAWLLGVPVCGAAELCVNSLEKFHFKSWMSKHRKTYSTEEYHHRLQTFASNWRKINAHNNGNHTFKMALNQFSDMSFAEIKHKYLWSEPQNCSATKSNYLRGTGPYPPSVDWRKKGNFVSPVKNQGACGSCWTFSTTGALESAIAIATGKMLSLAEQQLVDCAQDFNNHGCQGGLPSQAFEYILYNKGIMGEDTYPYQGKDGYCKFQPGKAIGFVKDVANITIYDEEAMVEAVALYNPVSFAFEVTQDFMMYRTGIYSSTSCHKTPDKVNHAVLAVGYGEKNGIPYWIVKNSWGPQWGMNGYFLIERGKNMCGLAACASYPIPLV

[3] = Solubility at pH 6.8; type: physicochemical; conditions: buffer
[4] = Volume of distribution in Wistar rat at 3 mg/kg, iv; type: ADME, organism-based; design: dose 3 mg/kg, route intravenous; conditions: in vivo, read-out: Vdss
[5] = Clearance in Wistar rat at 3 mg/kg, iv; type: ADME, organism-based; design: dose 3 mg/kg, route intravenous; conditions: in vivo
[6] = Half life in Wistar rat at 10 mg/kg, po; type: ADME, organism-based; design: dose 10 mg/kg, route oral; conditions: in vivo
[7] = Bioavailability in Wistar rat at 10 mg/kg, po; type: ADME, organism-based; conditions: in vivo
Cathepsin F = biological target: T4, Cathepsin F (Homo sapiens, UniProt Q9UBX1); assay: Inhibition of cathepsin F
T4 sequence (Q9UBX1 whole entry): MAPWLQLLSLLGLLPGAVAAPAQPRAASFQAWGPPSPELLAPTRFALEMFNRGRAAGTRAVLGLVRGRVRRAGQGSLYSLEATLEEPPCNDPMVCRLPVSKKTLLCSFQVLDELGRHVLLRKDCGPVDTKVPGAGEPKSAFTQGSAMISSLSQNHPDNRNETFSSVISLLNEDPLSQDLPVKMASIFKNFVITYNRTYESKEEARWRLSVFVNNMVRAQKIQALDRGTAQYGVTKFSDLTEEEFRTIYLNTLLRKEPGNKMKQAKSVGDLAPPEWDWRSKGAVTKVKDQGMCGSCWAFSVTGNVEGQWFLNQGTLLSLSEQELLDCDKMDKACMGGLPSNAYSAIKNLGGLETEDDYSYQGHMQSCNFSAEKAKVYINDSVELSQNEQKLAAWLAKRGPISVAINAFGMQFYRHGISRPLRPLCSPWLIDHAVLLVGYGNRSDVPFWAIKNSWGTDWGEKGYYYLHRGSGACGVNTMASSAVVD

Liver microsomes = assay: Stability in rat liver microsomes; type: ADME, Microsome
[8] = Half life in Wistar rat at 3 mg/kg, iv; type: ADME, organism-based; design: dose 3 mg/kg, route intravenous; conditions: in vivo

Chain of Procathepsin L (P07711 whole entry): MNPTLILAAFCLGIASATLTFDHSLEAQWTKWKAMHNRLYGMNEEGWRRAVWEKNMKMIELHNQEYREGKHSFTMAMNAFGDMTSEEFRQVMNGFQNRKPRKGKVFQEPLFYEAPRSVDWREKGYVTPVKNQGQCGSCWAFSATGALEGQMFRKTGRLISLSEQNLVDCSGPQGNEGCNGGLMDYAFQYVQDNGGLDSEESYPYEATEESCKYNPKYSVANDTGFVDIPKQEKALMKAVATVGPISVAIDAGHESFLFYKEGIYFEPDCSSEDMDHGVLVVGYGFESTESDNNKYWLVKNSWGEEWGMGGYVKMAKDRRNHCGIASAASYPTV
Chain of Cathepsin S (P25774 whole entry): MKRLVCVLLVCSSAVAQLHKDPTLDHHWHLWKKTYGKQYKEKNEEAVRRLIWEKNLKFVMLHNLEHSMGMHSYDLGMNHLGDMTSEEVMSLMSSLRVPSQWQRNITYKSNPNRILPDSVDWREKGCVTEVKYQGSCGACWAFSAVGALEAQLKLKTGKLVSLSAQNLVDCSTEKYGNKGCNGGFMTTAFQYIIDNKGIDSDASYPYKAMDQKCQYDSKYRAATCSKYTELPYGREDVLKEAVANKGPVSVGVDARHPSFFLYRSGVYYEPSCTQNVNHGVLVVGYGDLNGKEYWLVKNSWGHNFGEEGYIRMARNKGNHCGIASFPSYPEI
Chain of Cathepsin Z (Q9UBR2 whole entry): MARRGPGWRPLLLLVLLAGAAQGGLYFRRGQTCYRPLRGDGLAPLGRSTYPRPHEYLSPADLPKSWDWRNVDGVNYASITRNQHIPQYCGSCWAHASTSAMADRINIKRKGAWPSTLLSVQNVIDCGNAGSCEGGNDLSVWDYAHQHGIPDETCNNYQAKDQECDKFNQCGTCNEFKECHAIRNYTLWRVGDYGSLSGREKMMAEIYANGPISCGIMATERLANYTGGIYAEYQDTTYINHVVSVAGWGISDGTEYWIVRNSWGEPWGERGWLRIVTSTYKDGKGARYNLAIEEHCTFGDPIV

Row | Compound | Ki (Cathepsin K) [µM] | Ki (Cathepsin S) [nM] | Ki (Procathepsin L) [nM] | other results
1 | C[C@@H](CNc1ccc(OC(F)(F)F)cc1)NC(=O)[C@H](CC1CCCCC1)NC(=O)O[C@@H]1CCOC1 | > 30 | 42 | 2570 | 
2 | O=C(NCCNc1ccc(OC(F)(F)F)cc1)[C@H](Cc1ccccc1)NC(=O)N1CCOCC1 | > 100 | 11400 | > 100000 | 
3 | C[C@@H](CNc1ccc(OC(F)(F)F)cc1)NC(=O)[C@H](CC1CCCCC1)NC(=O)O[C@H]1CCOC1 | > 30 | 49 | 594 | 
4 | O=C(NCCNc1ccc(OC(F)(F)F)cc1)[C@H](CC1CCCCC1)NC(=O)[C@H]1CCCO1 | > 30 | 658 | 3120 | 
5 | CC[C@@H](CNc1ccc(OC(F)(F)F)cc1)NC(=O)[C@H](CC1CCCCC1)NC(=O)N1CCOCC1 | 0.13 | 11 | 6 | 
6 | O=C(N[C@@H](CC1CCCCC1)C(=O)NCCNc1ccc(OC(F)(F)F)cc1)c1ccc(-c2cccc(F)c2)o1 | 11.7 | 34 |  | 
7 | C[C@@H](CNc1ccc(OC(F)(F)F)cc1)NC(=O)[C@H](CC1CCCCC1)NC(=O)N1CCOCC1 | 1.66 | 11 |  | 
8 | C[C@@H](CNc1ccc(OC(F)(F)F)cc1)NC(=O)[C@H](CC1CCCC1)NC(=O)N1CCOCC1 | 1.54 | 49 |  | 
9 | O=C(N[C@@H](CC1CCCCC1)C(=O)NCCNc1ccc(OC(F)(F)F)cc1)c1ccco1 | 8.81 | 47 | 1150 | 
10 | C[C@@H](CNc1ccc(OC(F)(F)F)cc1)NC(=O)[C@H](CC1CCCCC1)NC(=O)C1CCOCC1 | 14.3 | 12 |  | 
11 | CC(C)(C)C[C@H](NC(=O)N1CCOCC1)C(=O)NCCNc1ccc(OC(F)(F)F)cc1 | 1.33 | 220 | > 30000 | 
12 | C[C@@H](CNc1ccc(OC(F)(F)F)cc1)NC(=O)[C@H](CS(=O)(=O)Cc1ccccc1)NC(=O)N1CCOCC1 | > 100 |  | > 30000 | Ki (Cathepsin Z): > 30 µM; AUC [1]: 700 ng·h/mL; Ki (Cathepsin L2): > 30 µM; Ki (Cathepsin B): > 30 µM; Cmax [2]: 639 nM; Ki (Pro-cathepsin H): > 30 µM; solubility [3]: 43 µg/mL (≈ 75.1 µM); Vd [4]: 0.87 L/kg; clearance [5]: 39 mL/min/kg; half-life [6]: 66 min; bioavailability [7]: 16%; Ki (Cathepsin F): > 30 µM; Stability (Liver microsomes): 100%; half-life [8]: 49 min
13 | C[C@@H](CNc1ccc(OC(F)(F)F)cc1)NC(=O)[C@H](CC1CCCCC1)NC(=O)OC1CCOCC1 | 13.3 | 12 |  | 
14 | O=C(N[C@@H](CC1CCCCC1)C(=O)NCCNc1ccc(OC(F)(F)F)cc1)c1ccc(-c2cccc(C(F)(F)F)c2)o1 | 8.58 | 11 |  | 
15 | C[C@@H](CN1c2ccc(F)cc2CC1(C)C)NC(=O)[C@H](CC1CCCCC1)NC(=O)N1CCOCC1 | 13.1 | 111 |  | 
16 | C[C@@H](CN1CC(C)(C)c2cc(F)ccc21)NC(=O)[C@H](CC1CCCCC1)NC(=O)N1CCOCC1 | 16.9 | 11 | 810 | solubility [3]: 10 µg/mL (≈ 20.5 µM); Stability (Liver microsomes): < 1%
17 | O=C(N[C@@H](CC1CCCCC1)C(=O)NCCNc1ccc(OC(F)(F)F)cc1)c1ccoc1 | 9.34 | 6 |  | 
18 | O=C(N[C@@H](CC1CCCCC1)C(=O)NCCNc1ccc(OC(F)(F)F)cc1)C1CCOC1 (stereo partly drawn) | > 30 | 213 | 7940 | 
19 | C[C@@H](CN1CCc2cc(F)ccc21)NC(=O)[C@H](CC1CCCCC1)NC(=O)N1CCOCC1 | 5.13 | 87 |  | 
20 | CS(=O)(=O)CC[C@@H](CNc1ccc(OC(F)(F)F)cc1)NC(=O)[C@H](CC1CCCCC1)NC(=O)N1CCOCC1 | 0.139 | 5 | 4 | 
21 | C[C@@H](CNc1ccc(OC(F)(F)F)cc1)NC(=O)[C@H](CC1CCCCC1)NC(=O)C1CCOC1 (stereo partly drawn) | > 30 | 21 | 4790 | AUC [1]: 817 ng·h/mL; Cmax [2]: 491 nM; solubility [3]: 30 µg/mL (≈ 61.8 µM); Vd [4]: 2.48 L/kg; clearance [5]: 39 mL/min/kg; half-life [6]: 90 min; bioavailability [7]: 19%; Stability (Liver microsomes): 56%; half-life [8]: 108 min
22 | O=C(NCCNc1ccc(OC(F)(F)F)cc1)[C@H](CC1CCCCC1)NC(=O)N1CCOCC1 | 18.8 | 99 |  | 
23 | C[C@@H](CNc1ccc(OC(F)(F)F)cc1)NC(=O)[C@H](CC1CCCCC1)NC(=O)[C@H]1CCCO1 | 4.61 | 18 |  | AUC [1]: 1750 ng·h/mL; Cmax [2]: 1240 nM; solubility [3]: 25 µg/mL (≈ 51.5 µM); Vd [4]: 1.78 L/kg; clearance [5]: 35 mL/min/kg; half-life [6]: 58 min; bioavailability [7]: 36%; Stability (Liver microsomes): 66%; half-life [8]: 66 min
24 | C[C@@H](CNc1ccc(OC(F)(F)F)cc1)NC(=O)[C@H](CC(C)(C)C)NC(=O)N1CCOCC1 | 0.461 | 93 | 14600 | 
25 | COc1ccc(NCCNC(=O)[C@H](CC2CCCCC2)NC(=O)c2ccc(-c3cccc(C(F)(F)F)c3)o2)cc1 |  |  |  | AUC [1]: 50 ng·h/mL; Cmax [2]: 19 nM; solubility [3]: < 1 µg/mL; half-life [6]: 146 min; Stability (Liver microsomes): 12%
26 | C[C@@H](CNc1ccc(OC(F)(F)F)cc1)NC(=O)[C@H](CSCc1ccccc1)NC(=O)N1CCOCC1 | 2.48 | 12 |  | 
27 | O=C(N[C@@H](CC1CCCCC1)C(=O)NCCNc1ccc(OC(F)(F)F)cc1)c1cc2ccccc2o1 | 0.15 | 17 |  | 
28 | COc1ccc(NCCNC(=O)[C@H](CC2CCCCC2)Nc2nc3ccccc3o2)cc1 |  |  |  | solubility [3]: 10 µg/mL (≈ 22.9 µM); bioavailability [7]: < 1%; Stability (Liver microsomes): 4%
29 | C[C@@H](CNc1ccc(OC(F)(F)F)cc1)NC(=O)[C@H](CC1CCCCC1)NC(=O)[C@@H]1CCCO1 | > 30 | 53 |  | 
